Source: patent US12297194B2, “N2-phenylpyrimidine-2,4-diamine compounds, and preparation methods and methods of use thereof” (BRIDGE BIOTHERAPEUTICS, INC., priority 2021, dated 2025)

How the values were obtained:
Type in all cases: cell-based, murine
[1] = biological target: Ba/F3 EGFR L858R/T790M/C797S mutants (Homo sapiens, UniProt P00533, T790M/C797S/L858R, cells depend on it); experiment: CellTiter-Glo cell viability, Ba/F3 EGFR L858R/T790M/C797S cells; conditions: 72 hours, read-out: Ba/F3 EGFR mutant cell (IC50, nM) L/T/C
Chain of Ba/F3 EGFR L858R/T790M/C797S mutants (P00533 whole entry T790M/C797S/L858R): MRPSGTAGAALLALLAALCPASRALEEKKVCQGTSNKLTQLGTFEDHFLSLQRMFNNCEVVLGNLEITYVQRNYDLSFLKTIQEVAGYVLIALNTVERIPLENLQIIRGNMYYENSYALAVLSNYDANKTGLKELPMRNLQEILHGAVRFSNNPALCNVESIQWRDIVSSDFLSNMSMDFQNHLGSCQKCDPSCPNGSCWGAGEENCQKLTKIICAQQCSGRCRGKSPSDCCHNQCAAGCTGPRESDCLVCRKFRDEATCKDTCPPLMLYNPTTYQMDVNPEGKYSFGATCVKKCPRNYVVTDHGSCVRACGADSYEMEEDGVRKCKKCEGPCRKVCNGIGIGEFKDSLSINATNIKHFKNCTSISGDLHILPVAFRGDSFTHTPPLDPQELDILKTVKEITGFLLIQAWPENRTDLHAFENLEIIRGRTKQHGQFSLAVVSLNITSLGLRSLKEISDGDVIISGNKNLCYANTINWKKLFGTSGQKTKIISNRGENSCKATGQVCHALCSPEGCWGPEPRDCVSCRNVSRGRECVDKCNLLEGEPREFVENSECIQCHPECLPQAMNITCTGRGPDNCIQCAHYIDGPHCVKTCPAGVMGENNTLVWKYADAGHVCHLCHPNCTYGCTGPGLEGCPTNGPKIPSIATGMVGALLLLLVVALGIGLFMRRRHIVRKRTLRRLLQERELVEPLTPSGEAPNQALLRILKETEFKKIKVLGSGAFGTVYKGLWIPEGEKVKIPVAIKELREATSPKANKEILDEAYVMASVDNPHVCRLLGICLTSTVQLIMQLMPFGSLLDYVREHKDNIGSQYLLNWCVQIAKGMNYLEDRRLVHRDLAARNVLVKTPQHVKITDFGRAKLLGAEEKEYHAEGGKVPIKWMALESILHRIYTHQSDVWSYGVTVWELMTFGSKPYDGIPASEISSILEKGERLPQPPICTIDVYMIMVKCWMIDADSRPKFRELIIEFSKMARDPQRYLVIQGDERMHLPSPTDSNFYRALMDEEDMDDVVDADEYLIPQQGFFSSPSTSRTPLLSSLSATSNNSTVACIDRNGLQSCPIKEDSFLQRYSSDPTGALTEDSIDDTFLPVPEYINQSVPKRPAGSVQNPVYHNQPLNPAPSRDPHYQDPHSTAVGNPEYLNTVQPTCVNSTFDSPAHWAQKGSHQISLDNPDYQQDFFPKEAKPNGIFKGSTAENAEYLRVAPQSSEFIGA
Method in brief: (§1)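 IC50 values derive from CellTiter-Glo luminescence measured after 72 hours of treatment of EGFR-dependent Ba/F3 cells, dosed at concentrations up to 2000 nM starting 24 hours after seeding.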

[2] = biological target: Ba/F3 EGFR Del19/T790M/C797S mutants (Homo sapiens, UniProt P00533, T790M/C797S, cells depend on it, form not given); experiment: CellTiter-Glo cell viability, Ba/F3 EGFR Del19/T790M/C797S cells; conditions: 72 hours, read-out: Ba/F3 EGFR mutant cell (IC50, nM) D/T/C
Method in brief: as §1

[3] = biological target: Ba/F3 EGFR Wild-type (Homo sapiens, UniProt P00533); experiment: CellTiter-Glo cell viability, Ba/F3 EGFR wild-type cells; conditions: 72 hours, read-out: Ba/F3 EGFR mutant cell (IC50, nM) WT
Method in brief: as §1

[4] = biological target: Ba/F3 EGFR L858R/C797S mutants (Homo sapiens, UniProt P00533, C797S/L858R, cells depend on it); experiment: CellTiter-Glo cell viability, Ba/F3 EGFR L858R/C797S cells; conditions: 72 hours, read-out: Ba/F3 EGFR mutant cell (IC50, nM) L/C
Chain of Ba/F3 EGFR L858R/C797S mutants (P00533 whole entry C797S/L858R): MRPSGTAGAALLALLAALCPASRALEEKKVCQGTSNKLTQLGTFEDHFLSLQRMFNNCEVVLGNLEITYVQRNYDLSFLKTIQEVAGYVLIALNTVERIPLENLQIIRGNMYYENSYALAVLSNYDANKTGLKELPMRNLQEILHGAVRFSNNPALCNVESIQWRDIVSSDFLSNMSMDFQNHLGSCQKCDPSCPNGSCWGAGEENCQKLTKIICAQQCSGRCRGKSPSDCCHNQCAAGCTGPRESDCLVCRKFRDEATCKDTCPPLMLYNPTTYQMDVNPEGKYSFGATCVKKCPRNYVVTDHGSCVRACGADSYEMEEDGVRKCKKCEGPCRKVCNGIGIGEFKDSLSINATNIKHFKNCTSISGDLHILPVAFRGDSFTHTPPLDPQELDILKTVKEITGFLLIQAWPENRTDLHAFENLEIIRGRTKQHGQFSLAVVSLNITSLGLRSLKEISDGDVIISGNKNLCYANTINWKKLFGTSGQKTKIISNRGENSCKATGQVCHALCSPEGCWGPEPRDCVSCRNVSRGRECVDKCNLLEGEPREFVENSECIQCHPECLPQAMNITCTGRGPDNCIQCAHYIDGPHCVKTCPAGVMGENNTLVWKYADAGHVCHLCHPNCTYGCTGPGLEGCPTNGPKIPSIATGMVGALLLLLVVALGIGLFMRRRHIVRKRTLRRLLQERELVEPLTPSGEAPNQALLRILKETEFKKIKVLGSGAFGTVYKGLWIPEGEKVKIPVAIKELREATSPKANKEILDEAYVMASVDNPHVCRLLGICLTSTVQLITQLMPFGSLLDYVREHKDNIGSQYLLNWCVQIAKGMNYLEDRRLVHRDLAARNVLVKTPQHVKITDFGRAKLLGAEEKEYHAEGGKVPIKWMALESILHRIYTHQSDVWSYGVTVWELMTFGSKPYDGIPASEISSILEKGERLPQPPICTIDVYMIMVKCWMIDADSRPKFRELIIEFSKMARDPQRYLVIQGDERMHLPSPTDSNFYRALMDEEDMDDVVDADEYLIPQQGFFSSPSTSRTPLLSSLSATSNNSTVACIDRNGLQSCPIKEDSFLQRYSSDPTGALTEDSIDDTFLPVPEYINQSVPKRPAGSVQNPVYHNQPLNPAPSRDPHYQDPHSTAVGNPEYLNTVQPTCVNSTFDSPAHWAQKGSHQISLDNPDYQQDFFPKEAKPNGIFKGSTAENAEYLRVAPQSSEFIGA
Method in brief: as §1

[5] = biological target: Ba/F3 EGFR Del19/T790M mutants (Homo sapiens, UniProt P00533, T790M, cells depend on it, form not given); experiment: CellTiter-Glo cell viability, Ba/F3 EGFR Del19/T790M cells; conditions: 72 hours, read-out: Ba/F3 EGFR mutant cell (IC50, nM) D/T
Chain of Ba/F3 EGFR Del19/T790M mutants (P00533 with tags, fused parts or gaps DEL746-750/T790M, form open): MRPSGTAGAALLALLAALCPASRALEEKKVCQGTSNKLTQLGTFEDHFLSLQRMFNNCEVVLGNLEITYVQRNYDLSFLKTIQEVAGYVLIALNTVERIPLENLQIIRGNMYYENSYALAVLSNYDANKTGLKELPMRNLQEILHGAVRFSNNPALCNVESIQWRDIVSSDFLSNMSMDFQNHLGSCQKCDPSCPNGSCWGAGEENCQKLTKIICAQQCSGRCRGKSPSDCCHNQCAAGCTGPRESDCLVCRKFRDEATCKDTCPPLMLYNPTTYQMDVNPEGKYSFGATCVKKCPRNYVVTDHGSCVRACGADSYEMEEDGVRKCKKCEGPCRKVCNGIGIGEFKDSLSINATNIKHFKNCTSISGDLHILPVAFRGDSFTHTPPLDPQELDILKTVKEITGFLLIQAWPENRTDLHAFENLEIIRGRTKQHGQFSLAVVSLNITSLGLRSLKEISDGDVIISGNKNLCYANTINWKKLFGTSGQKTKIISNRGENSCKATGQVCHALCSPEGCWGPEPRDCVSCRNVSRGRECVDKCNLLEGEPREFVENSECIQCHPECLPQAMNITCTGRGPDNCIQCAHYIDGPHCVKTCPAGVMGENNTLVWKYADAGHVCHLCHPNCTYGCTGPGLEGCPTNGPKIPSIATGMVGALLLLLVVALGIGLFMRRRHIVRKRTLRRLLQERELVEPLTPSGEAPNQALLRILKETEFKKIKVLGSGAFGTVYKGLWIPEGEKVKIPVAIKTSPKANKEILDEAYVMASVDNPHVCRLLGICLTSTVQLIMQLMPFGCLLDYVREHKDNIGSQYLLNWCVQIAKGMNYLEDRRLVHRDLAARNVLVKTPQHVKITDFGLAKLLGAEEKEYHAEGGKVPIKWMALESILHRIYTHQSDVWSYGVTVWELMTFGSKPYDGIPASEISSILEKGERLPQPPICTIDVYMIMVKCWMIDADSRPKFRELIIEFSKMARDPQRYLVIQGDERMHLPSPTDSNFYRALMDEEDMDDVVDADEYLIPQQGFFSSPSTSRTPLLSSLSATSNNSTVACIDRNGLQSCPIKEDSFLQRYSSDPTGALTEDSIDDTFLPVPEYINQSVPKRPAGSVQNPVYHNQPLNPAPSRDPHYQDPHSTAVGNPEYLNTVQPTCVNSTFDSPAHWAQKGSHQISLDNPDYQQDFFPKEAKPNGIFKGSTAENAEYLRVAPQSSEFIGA
Method: In order to evaluate an inhibitory ability on wild-type Ba/F3 EGFR and Ba/F3 EGFR mutations in Ba/F3 cell lines by the compounds of Formula 1, the experiment was carried out as described below.
The measurement of activities on Ba/F3 cells harboring wild-type EGFR and EGFR mutants by the compounds of the present invention were determined utilizing the CELLTITER-GLO™ system from Promega, as follows. The CELLTITER-GLO™ assay is a method for measuring the ATP present in cells to determine the cell viability. Ba/F3 EGFR wild-type and Ba/F3 EGFR L858R/C797S (L/C), Ba/F3 EGFR L858R/T790M/C797S (L/T/C), Ba/F3 EGFR Del19/T790M (D/T), Ba/F3 EGFR Del19/C797S (D/C), Ba/F3 EGFR Del19/T790M/C797S (D/T/C) mutant cell lines were maintained in RPMI1640, containing […], 1% penicillin-streptomycin, […] puromycin. Cells were grown in a humidified incubator at 37° C. with […].
The analysis of an EGFR inhibitory activity by the compounds was carried out in accordance with the analysis reaction recipe below.
2500 cells/90 μL were seeded in 96 well cell culture plate, and after 24 hours, treated with the compounds represented by Formula 1 in concentrations of 0, 0.3, 0.9, 2.7, 8.2, 24.7, 74.1, 222.2, 666.7, 2000 (nM). After the reaction of 72 hours, the plate was incubated for 30 minutes at ambient temperature, and then, was further treated with 100 μL of the CELLTITER-GLO™ reagent and was shaken for 10 minutes at ambient temperature. Finally, measurement of the luminescence values were obtained using the SPECTRAMAX™ iD3 (Molecular Devices), and the IC50 values of the compound were analyzed using the GraphPad Prism program (version 9.0.2, GraphPad Software, Inc.).

[6] = biological target: Ba/F3 EGFR Del19/C797S mutants (Homo sapiens, UniProt P00533, C797S, cells depend on it, form not given); experiment: CellTiter-Glo cell viability, Ba/F3 EGFR Del19/C797S cells; conditions: 72 hours, read-out: Ba/F3 EGFR mutant cell (IC50, nM) D/C
Chain of Ba/F3 EGFR Del19/C797S mutants (P00533 with tags, fused parts or gaps DEL746-750/C797S, form open): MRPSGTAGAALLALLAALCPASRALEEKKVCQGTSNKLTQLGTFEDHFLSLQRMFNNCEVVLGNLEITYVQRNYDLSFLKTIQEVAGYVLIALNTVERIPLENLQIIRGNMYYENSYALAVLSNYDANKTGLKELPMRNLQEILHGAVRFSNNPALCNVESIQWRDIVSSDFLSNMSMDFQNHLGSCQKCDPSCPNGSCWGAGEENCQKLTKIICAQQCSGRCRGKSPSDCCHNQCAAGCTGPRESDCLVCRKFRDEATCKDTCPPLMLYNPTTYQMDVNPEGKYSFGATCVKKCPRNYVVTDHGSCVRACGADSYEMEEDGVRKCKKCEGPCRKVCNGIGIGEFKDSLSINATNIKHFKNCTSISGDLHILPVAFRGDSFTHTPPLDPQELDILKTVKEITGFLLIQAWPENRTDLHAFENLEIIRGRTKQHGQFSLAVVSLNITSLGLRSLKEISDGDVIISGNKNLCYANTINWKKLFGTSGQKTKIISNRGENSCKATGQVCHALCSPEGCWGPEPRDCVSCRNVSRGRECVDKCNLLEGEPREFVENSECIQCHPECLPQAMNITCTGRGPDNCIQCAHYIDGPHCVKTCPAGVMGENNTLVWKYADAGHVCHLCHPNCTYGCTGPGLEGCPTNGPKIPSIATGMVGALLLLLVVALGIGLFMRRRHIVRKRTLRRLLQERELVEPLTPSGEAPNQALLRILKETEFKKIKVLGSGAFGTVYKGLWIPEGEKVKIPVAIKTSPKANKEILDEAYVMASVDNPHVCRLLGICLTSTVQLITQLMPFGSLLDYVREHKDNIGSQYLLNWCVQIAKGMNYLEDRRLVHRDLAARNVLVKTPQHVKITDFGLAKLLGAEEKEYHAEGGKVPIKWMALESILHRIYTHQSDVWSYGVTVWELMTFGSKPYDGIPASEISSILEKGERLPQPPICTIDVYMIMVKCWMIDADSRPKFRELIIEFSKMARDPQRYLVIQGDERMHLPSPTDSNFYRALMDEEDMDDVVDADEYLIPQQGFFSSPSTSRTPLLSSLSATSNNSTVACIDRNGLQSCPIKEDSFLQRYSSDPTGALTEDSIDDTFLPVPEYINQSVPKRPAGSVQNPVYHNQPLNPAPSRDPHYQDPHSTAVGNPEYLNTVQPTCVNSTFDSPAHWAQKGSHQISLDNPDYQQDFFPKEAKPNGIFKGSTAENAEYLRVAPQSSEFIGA
Method in brief: as §1

Structure (SMILES)	GI50 [1] [nM]	GI50 [2] [nM]	GI50 [3] [nM]	GI50 [4] [nM]	GI50 [5] [nM]	GI50 [6] [nM]
CCCc1cc(Nc2ncc(Cl)c(Nc3cccc(OC)c3N(C)S(C)(=O)=O)n2)c(OC)cc1N1CCC(N(C)C)CC1 [Example C31, N-(2-((5-chloro-2-((4-(4-(dimethylamino)piperidin-1-yl)-2-methoxy-5-propylphenyl)amino)pyrimidin-4-yl)amino)-6-methoxyphenyl)-N-methylmethanesulfonamide]	68	20	698	89	22	10
CCc1cc(Nc2ncc(Br)c(Nc3ccc4nccnc4c3N(C)S(C)(=O)=O)n2)c(OC)cc1N1CCC(N2CCN(C)CC2)CC1 [Example A10, N-(6-((5-bromo-2-((5-ethyl-2-methoxy-4-(4-(4-methylpiperazin-1-yl)piperidin-1-yl)phenyl)amino)pyrimidin-4-yl)amino)quinoxalin-5-yl)-N-methylmethane sulfonamide]	9	4	400	37	5	16
CCc1cc(Nc2ncc(Cl)c(Nc3ccc4nccnc4c3N(C)S(C)(=O)=O)n2)c(OC)cc1N1CCC(N2CC3CCC2CN3C)CC1 (stereo not drawn) [Example A47, N-(6-((5-chloro-2-((5-ethyl-2-methoxy-4-(4-(5-methyl-2,5-diazabicyclo[2.2.2]octan-2-yl)piperidin-1-yl)phenyl)amino)pyrimidin-4-yl)amino)quinoxalin-5-yl)-N-methylmethanesulfonamide]	64	25	730	125	17	7
CCCc1cc(Nc2ncc(Cl)c(Nc3cccc(OC)c3NS(C)(=O)=O)n2)c(OC)cc1N1CCC(N2CCOCC2)CC1 [Example C23, N-(2-((5-chloro-2-((2-methoxy-4-(4-morpholinopiperidin-1-yl)-5-propylphenyl)amino)pyrimidin-4-yl)amino)-6-methoxyphenyl)methanesulfonamide]	137	10	1680	72	30	14
CCCc1cc(Nc2ncc(Cl)c(Nc3ccc4nccnc4c3NS(C)(=O)=O)n2)c(OC)cc1N1CCC(N(C)C)CC1 [Example B12, N-(6-((5-chloro-2-((4-(4-(dimethylamino)piperidin-1-yl)-2-methoxy-5-propylphenyl)amino)pyrimidin-4-yl)amino)quinoxalin-5-yl)methanesulfonamide]	36	104	431	87	19	29
CCc1cc(Nc2ncc(Cl)c(Nc3ccc4nccnc4c3NS(C)(=O)=O)n2)c(OC)cc1N1CC2(C1)CN(C(C)C)C2 [Example B26, N-(6-((5-chloro-2-((5-ethyl-4-(6-isopropyl-2,6-diazaspiro[3.3]heptan-2-yl)-2-methoxyphenyl)amino)pyrimidin-4-yl)amino)quinoxalin-5-yl)methanesulfonamide]	61	9	528	59	38	42
CCc1cc(Nc2ncc(Br)c(Nc3ccc4nccnc4c3N(C)S(C)(=O)=O)n2)c(OC)cc1N1CCC(N2CCCCC2)CC1 [Example A44, N-(6-((2-((4-([1,4′-bipiperidin]-1′-yl)-5-ethyl-2-methoxyphenyl)amino)-5-bromopyrimidin-4-yl)amino)quinoxalin-5-yl)-N-methylmethanesulfonamide]	38	10	> 2000	94	12	6
COc1cc(N2CCC(N3CCCC3)CC2)c(C)cc1Nc1ncc(Br)c(Nc2cccc(OC)c2NS(C)(=O)=O)n1 [Example C25, N-(2-((5-bromo-2-((2-methoxy-5-methyl-4-(4-(pyrrolidin-1-yl)piperidin-1-yl)phenyl)amino)pyrimidin-4-yl)amino)-6-methoxyphenyl)methanesulfonamide]	44	6	707	55	6	18
